Test results taken from patent publication US8481544B2, “Antibacterial compositions” (Biota Europe Limited, priority 2006, dated 2013).
In brackets after ≈: the same amount, converted by molar mass. Read-outs that look alike come from different tables or passages of the source.

Key:
[1] = system: Enterococcus faecalis ATCC 29212; assay: MIC against Enterococcus faecalis ATCC 29212; format: cell-based; conditions: ATCC29212
How it was run: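 MIC measured by broth microdilution or agar dilution following CLSI guidelines (M7-A7 for aerobes, M11-A6 for anaerobes).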

[2] = system: Staphylococcus aureus; assay: mouse Staphylococcus aureus septicaemia model of infection, survival at day 7; format: in vivo
Description: Some of the Example compounds were also tested for activity in a mouse Staphylococcus aureus septicaemia model of infection.

[3] = system: Mycoplasma hominis MH NCTC 10111; assay: MIC against Mycoplasma hominis MH NCTC 10111; format: cell-based; conditions: Metamycoplasma hominis, NCTC10111; Isolate ID MH NCTC 10111
[4] = system: Streptococcus pneumoniae ATCC 700671; assay: MIC against Streptococcus pneumoniae ATCC 700671; format: cell-based; conditions: ATCC700671, Isolate ID ATCC 700671
[5] = system: Neisseria gonorrhoeae NG ATCC 49226; assay: MIC against Neisseria gonorrhoeae NG ATCC 49226; format: cell-based; conditions: ATCC49226, Isolate ID NG ATCC 49226
[6] = system: Staphylococcus aureus ATCC 29213; assay: MIC against Staphylococcus aureus ATCC 29213; format: cell-based; conditions: Staphylococcus aureus, ATCC29213; Isolate ID ATCC 29213; read-out: MIC (Activity) against Staphylococcus aureus
[7] = system: Lactococcus lactis ATCC 11454; assay: MIC against Lactococcus lactis ATCC 11454; format: cell-based; conditions: ATCC11454, Isolate ID ATCC 11454
[8] = system: Staphylococcus epidermidis ATCC 12228; assay: MIC against Staphylococcus epidermidis ATCC 12228; format: cell-based; conditions: Staphylococcus epidermidis, ATCC12228; Isolate ID ATCC 12228; read-out: MIC (Activity) against Staphylococcus epidermidis
[9] = system: Streptococcus pneumoniae (MacR) SP 051431; assay: MIC against Streptococcus pneumoniae (MacR) SP 051431; format: cell-based; conditions: Isolate ID SP 051431
[10] = system: Legionella pneumophila LP NCTC 11192; assay: microbe, parasite or virus in culture; format: cell-based; conditions: NCTC11192, read-out: MIC (Activity) against Legionella pneumophila
[11] = system: Staphylococcus haemolyticus ATCC 29970; assay: MIC against Staphylococcus haemolyticus ATCC 29970; format: cell-based; conditions: Staphylococcus haemolyticus, ATCC29970; Isolate ID ATCC 29970; read-out: MIC (Activity) against Staphylococcus haemolyticus
[12] = system: Streptococcus pneumoniae (FQR) SP 26054; assay: MIC against Streptococcus pneumoniae (FQR) SP 26054; format: cell-based; conditions: Isolate ID SP 26054
[13] = system: Haemophilus influenzae ATCC 49247; assay: MIC against Haemophilus influenzae ATCC 49247; format: cell-based; conditions: ATCC49247, Isolate ID ATCC 49247
[14] = system: Enterococcus faecalis (VRE) ATCC 51299; assay: MIC against Enterococcus faecalis (VRE) ATCC 51299; format: cell-based; conditions: Enterococcus faecalis; Isolate ID ATCC 51299; read-out: MIC (Activity) against Enterococcus faecalis (VRE)
[15] = system: Propionibacterium acnes ATCC 11821; assay: MIC against Propionibacterium acnes ATCC 11821; format: cell-based; conditions: Cutibacterium acnes, ATCC11821; Isolate ID ATCC 11821
[16] = system: Streptococcus pyogenes ATCC 51339; assay: MIC against Streptococcus pyogenes ATCC 51339; format: cell-based; conditions: Streptococcus pyogenes, ATCC51339; Isolate ID ATCC 51339; read-out: MIC (Activity) against Streptococcus pyogenes
[17] = system: Mycoplasma pneumoniae MP 9; assay: MIC against Mycoplasma pneumoniae MP 9; format: cell-based; conditions: MP9, Isolate ID MP 9
[18] = system: Bacteroides fragilis ATCC 25285; assay: MIC against Bacteroides fragilis ATCC 25285; format: cell-based; conditions: ATCC25285, Isolate ID ATCC 25285
[19] = system: Clostridium perfringens IV306001; assay: microbe, parasite or virus in culture; format: cell-based; conditions: IV306001, read-out: MIC (Activity) against Clostridium perfringens
[20] = system: Streptococcus pneumoniae SP 051430; assay: MIC against Streptococcus pneumoniae SP 051430; format: cell-based; conditions: SP051430, Isolate ID SP 051430
[21] = system: Enterococcus faecium (VSE) ATCC 19434; assay: MIC against Enterococcus faecium (VSE) ATCC 19434; format: cell-based; conditions: Enterococcus faecium, ATCC19434; Isolate ID ATCC 19434; read-out: MIC (Activity) against Enterococcus faecium (VSE)
[22] = system: Staphylococcus aureus VRS3; assay: MIC against Staphylococcus aureus VRS3; format: cell-based; conditions: Isolate ID VRS3
[23] = system: Clostridium difficile NQS 84; assay: MIC against Clostridium difficile NQS 84; format: cell-based; conditions: Clostridioides difficile, NQS84; Isolate ID NQS 84
Text: Institute. Methods for Dilution Antimicrobial Susceptibility Tests for Bacteria That Grow Aerobically; Approved Standard—Seventh Edition. Document M7-A7. CLSI, Wayne, Pa., 2006; Clinical Laboratories and Standards Institute. Methods for Antimicrobial Susceptibility Testing of Anaerobic Bacteria; Approved Standard—Sixth Edition. Document M11-A6. CLSI, Wayne, Pa., 2004).

[24] = system: Streptococcus mutans ATCC 35668; assay: MIC against Streptococcus mutans ATCC 35668; format: cell-based; conditions: Streptococcus mutans, ATCC35668; Isolate ID ATCC 35668; read-out: MIC (Activity) against Streptococcus mutans
[25] = system: Chlamydophila pneumoniae IOL207; assay: MIC against Chlamydophila pneumoniae IOL207; format: cell-based; conditions: Chlamydia pneumoniae; Isolate ID IOL207
[26] = system: Mycoplasma hominis MH 10; assay: MIC against Mycoplasma hominis MH 10; format: cell-based; conditions: Metamycoplasma hominis, MH10; Isolate ID MH 10
[27] = system: Enterococcus faecium (VRE) ATCC 700221; assay: MIC against Enterococcus faecium (VRE) ATCC 700221; format: cell-based; conditions: Enterococcus faecium; Isolate ID ATCC 700221; read-out: MIC (Activity) against Enterococcus faecium (VRE)
[28] = system: Chlamydia trachomatis T71214; assay: MIC against Chlamydia trachomatis T71214; format: cell-based; conditions: Isolate ID T71214
[29] = system: Streptococcus pneumoniae (FQR) SP 25058; assay: MIC against Streptococcus pneumoniae (FQR) SP 25058; format: cell-based; conditions: Isolate ID SP 25058
[30] = system: Moraxella catarrhalis ATCC 25240; assay: MIC against Moraxella catarrhalis ATCC 25240; format: cell-based; conditions: Moraxella catarrhalis, ATCC25240; Isolate ID ATCC 25240; read-out: MIC (Activity) against Moraxella catarrhalis
[31] = system: Listeria monocytogenes ATCC 19115; assay: MIC against Listeria monocytogenes ATCC 19115; format: cell-based; conditions: ATCC19115, Isolate ID ATCC 19115
[32] = system: Helicobacter pylori DJF 11; assay: MIC against Helicobacter pylori DJF 11; format: cell-based; conditions: DJF11, Isolate ID DJF 11
[33] = system: Staphylococcus aureus VRS1; assay: MIC against Staphylococcus aureus VRS1; format: cell-based; conditions: Isolate ID VRS1
[34] = system: Mycoplasma pneumoniae MP NCTC 10119; assay: MIC against Mycoplasma pneumoniae MP NCTC 10119; format: cell-based; conditions: NCTC10119, Isolate ID MP NCTC 10119
[35] = system: Escherichia coli N43; assay: MIC against Escherichia coli N43; format: cell-based; conditions: Isolate ID N43
[36] = system: Staphylococcus aureus VRS2; assay: MIC against Staphylococcus aureus VRS2; format: cell-based; conditions: Isolate ID VRS2
[37] = Enterococcus faecalis ATCC 29212, read-out: MICs against Enterococcus faecalis, Activity
[38] = 2 × 30 mg/kg intraperitoneal, 1 and 6 hours after inoculation

CCNC(=O)Nc1nc2cc(-c3cccnc3)cc(Br)c2s1 [Example 3, 1-(7-Bromo-5-pyridin-3-yl-benzothiazol-2-yl)-3-ethyl-urea]
melting point: 345 °C
MIC [1, 37]: 0.25 to 1 µg/mL (≈ 0.663 to 2.65 µM)

CCNC(=O)Nc1nc2cc(-c3cccnc3)cc(-c3cccnc3)c2s1 [Example 4, 1-(5,7-Di-pyridin-3-yl-benzothiazol-2-yl)-3-ethyl-urea]
Percent survival ([2]; 2 × 100 mg/kg intraperitoneal, 1 and 6 hours after inoculation): 100
MIC [1, 37]: 0.25 to 1 µg/mL (≈ 0.666 to 2.66 µM)

CCNC(=O)Nc1nc2cc(-c3cccnc3)cc(-c3cccc(Cl)n3)c2s1 [Example 88, 1-[7-(6-Chloro-pyridin-2-yl)-5-pyridin-3-yl-benzothiazol-2-yl]-3-ethyl-urea]
melting point: 249.9 °C
MIC [1, 37]: < 0.25 µg/mL

CCNC(=O)Nc1nc2cc(-c3cccnc3)cc(-c3cccc(C(F)(F)F)n3)c2s1 [Example 89, 1-Ethyl-3-[5-pyridin-3-yl-7-(6-trifluoromethyl-pyridin-2-yl)-benzothiazol-2-yl]-urea]
melting point: 256.7 °C
MIC [1, 37]: < 0.25 µg/mL

CCNC(=O)Nc1nc2cc(-c3cccnc3)cc(-c3ccc[nH]3)c2s1 [Example 90, 1-Ethyl-3-[5-pyridin-3-yl-7-(1H-pyrrol-2-yl)-benzothiazol-2-yl]-urea]
melting point: 220 °C
MIC [1, 37]: 0.25 to 1 µg/mL (≈ 0.688 to 2.75 µM)

CCNC(=O)Nc1nc2cc(-c3cccnc3)cc(-c3ncccc3F)c2s1 [Example 91, 1-Ethyl-3-[7-(3-fluoro-pyridin-2-yl)-5-pyridin-3-yl-benzothiazol-2-yl]-urea]
Percent survival [2, 38]: 100
MIC [1, 37]: < 0.25 µg/mL

CCNC(=O)Nc1nc2cc(-c3cccnc3)cc(-c3ccccn3)c2s1 [Example 163, 1-Ethyl-3-(5-pyridin-3-yl-7-pyridin-2-yl-benzothiazol-2-yl)-urea]
MIC [3]: 0.25 to 1 µg/mL (≈ 0.666 to 2.66 µM)
MIC [4]: < 0.25 µg/mL
MIC [5]: 0.25 to 1 µg/mL (≈ 0.666 to 2.66 µM)
MIC [6]: 0.25 to 1 µg/mL (≈ 0.666 to 2.66 µM)
Percent survival ([2]; 1 × 10 mg/kg intraperitoneal, 1 hour after inoculation): 60
Percent survival ([2]; 1 × 30 mg/kg intraperitoneal, 1 hour after inoculation): 100
Percent survival [2, 38]: 100
MIC [7]: < 0.25 µg/mL
MIC [8]: < 0.25 µg/mL
MIC [9]: < 0.25 µg/mL
MIC [10]: 0.25 to 1 µg/mL (≈ 0.666 to 2.66 µM)
MIC [11]: < 0.25 µg/mL
MIC [12]: < 0.25 µg/mL
MIC [13]: 2 to 16 µg/mL (≈ 5.33 to 42.6 µM)
MIC [14]: < 0.25 µg/mL
MIC [15]: < 0.25 µg/mL
MIC [16]: 0.25 to 1 µg/mL (≈ 0.666 to 2.66 µM)
MIC [17]: 0.25 to 1 µg/mL (≈ 0.666 to 2.66 µM)
MIC [18]: 2 to 16 µg/mL (≈ 5.33 to 42.6 µM)
MIC [19]: 0.25 to 1 µg/mL (≈ 0.666 to 2.66 µM)
MIC [20]: < 0.25 µg/mL
MIC [21]: 0.25 to 1 µg/mL (≈ 0.666 to 2.66 µM)
MIC [22]: < 0.25 µg/mL
MIC [23]: 0.25 to 1 µg/mL (≈ 0.666 to 2.66 µM)
MIC [24]: < 0.25 µg/mL
MIC [25]: < 0.25 µg/mL
MIC [26]: 0.25 to 1 µg/mL (≈ 0.666 to 2.66 µM)
MIC [27]: < 0.25 µg/mL
MIC [28]: 0.25 to 1 µg/mL (≈ 0.666 to 2.66 µM)
MIC [29]: < 0.25 µg/mL
MIC [30]: < 0.25 µg/mL
MIC [31]: < 0.25 µg/mL
MIC [1, 37]: < 0.25 µg/mL
MIC [32]: < 0.25 µg/mL
MIC [33]: < 0.25 µg/mL
MIC [34]: 0.25 to 1 µg/mL (≈ 0.666 to 2.66 µM)
MIC [35]: 2 to 16 µg/mL (≈ 5.33 to 42.6 µM)
MIC [36]: < 0.25 µg/mL

CCNC(=O)Nc1nc2cc(-c3cccnc3)cc(-c3cccc(OC)n3)c2s1 [Example 167, 1-Ethyl-3-[7-(6-methoxy-pyridin-2-yl)-5-pyridin-3-yl-benzothiazol-2-yl]-urea]
melting point: 300.1 °C
MIC [1, 37]: < 0.25 µg/mL

CCOC(=O)Nc1nc2cc(-c3cccnc3)cc(-c3ccccn3)c2s1 [Example 174, (5-Pyridin-3-yl-7-pyridin-2-yl-benzothiazol-2-yl)-carbamic acid ethyl ester]
melting point: 235 °C
MIC [1, 37]: < 0.25 µg/mL

CCNC(=O)Nc1nc2cc(-c3cccnc3)cc(-c3ccc(C)cn3)c2s1 [Example 175, 1-Ethyl-3-[7-(5-methyl-pyridin-2-yl)-5-pyridin-3-yl-benzothiazol-2-yl]-urea]
melting point: 231 °C
MIC [1, 37]: < 0.25 µg/mL

CCNC(=O)Nc1nc2cc(-c3cccnc3)cc(-c3cc(C)ccn3)c2s1 [Example 176, 1-Ethyl-3-[7-(4-methyl-pyridin-2-yl)-5-pyridin-3-yl-benzothiazol-2-yl]-urea]
MIC [1, 37]: < 0.25 µg/mL

CCNC(=O)Nc1nc2cc(-c3cccnc3)cc(-c3cccc(C)n3)c2s1 [Example 177, 1-Ethyl-3-[7-(6-methyl-pyridin-2-yl)-5-pyridin-3-yl-benzothiazol-2-yl]-urea]
MIC [1, 37]: < 0.25 µg/mL

CCNC(=O)Nc1nc2cc(-c3cncc(OC)c3)cc(-c3ccccn3)c2s1 [Example 179, 1-Ethyl-3-[5-(5-methoxy-pyridin-3-yl)-7-pyridin-2-yl-benzothiazol-2-yl]-urea]
MIC [1, 37]: < 0.25 µg/mL

CCNC(=O)Nc1nc2cc(-c3cnccn3)nc(-c3cnccn3)c2s1 [Example 181, 1-(4,6-di(pyrazin-2-yl)thiazolo[5,4-c]pyridin-2-yl)-3-ethylurea]
MIC ([1]; Enterococcus faecalis, ATCC 29212, Table 5, read-out: MIC against Enterococcus faecalis (Activity)): 0.25 to 1 µg/mL (≈ 0.661 to 2.64 µM)
